From ChEMBL document CHEMBL6092226, “Tilting the Scales toward EGFR Mutant Selectivity: Expanding the Scope of Bivalent "Type V" Kinase Inhibitors” (J Med Chem, 2024)
Activity calls are given as the source filed them. No cut-off for these calls is given here.

What was measured:
BaF3 [1] = experiment: cells; conditions: Mus musculus, BaF3, 72 h
BaF3 [2] = experiment: cells; conditions: Mus musculus, BaF3, 72 h; remark: listed apart in the source
cells = conditions: Homo sapiens, NCI-H1975, 72 h
Homo sapiens = species: Homo sapiens; experiment: Inhibition of DMPK2 (unknown origin) at 1 uM by Eurofins DiscoverX KINOMEscan analysis relative to control
[3] = Drug metabolism in pooled male human liver microsomes assessed as thioether oxidation mediated metabolite formation at 150 uM measured after 2 hrs by LC-MS analysis; type: ADME, Microsome
[4] = target: T1, Cytoplasmic tyrosine-protein kinase BMX (Homo sapiens) (UniProt P51813); experiment: Inhibition of BMX (unknown origin) at 1 uM by Eurofins DiscoverX KINOMEscan analysis
T1 sequence (whole entry): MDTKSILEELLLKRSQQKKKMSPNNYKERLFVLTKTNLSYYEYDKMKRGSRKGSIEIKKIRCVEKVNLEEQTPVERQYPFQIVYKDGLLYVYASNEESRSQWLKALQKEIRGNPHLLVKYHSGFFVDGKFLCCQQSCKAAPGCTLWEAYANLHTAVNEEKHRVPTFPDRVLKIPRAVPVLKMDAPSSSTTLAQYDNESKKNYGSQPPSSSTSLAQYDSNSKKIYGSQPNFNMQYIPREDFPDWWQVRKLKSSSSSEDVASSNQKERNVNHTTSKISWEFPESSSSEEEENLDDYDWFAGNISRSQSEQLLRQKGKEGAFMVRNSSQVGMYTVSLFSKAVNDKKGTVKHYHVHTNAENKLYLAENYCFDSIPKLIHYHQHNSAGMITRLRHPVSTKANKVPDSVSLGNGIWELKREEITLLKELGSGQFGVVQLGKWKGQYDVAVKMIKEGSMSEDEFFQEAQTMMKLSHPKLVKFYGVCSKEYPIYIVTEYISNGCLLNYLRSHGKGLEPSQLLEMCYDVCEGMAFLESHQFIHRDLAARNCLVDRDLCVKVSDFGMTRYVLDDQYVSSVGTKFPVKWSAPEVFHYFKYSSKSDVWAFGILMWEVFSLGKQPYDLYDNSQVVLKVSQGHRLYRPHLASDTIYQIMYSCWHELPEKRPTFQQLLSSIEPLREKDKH

BaF3 [5] = experiment: Antiproliferative activity against mouse BaF3 cells harboring EGFR exon 19del mutant incubated for 72 hrs by MTT assay; type: functional, cell-based; conditions: BaF3, 72 h
[6] = target: T2, Dual specificity mitogen-activated protein kinase kinase 7 (Homo sapiens) (UniProt O14733); experiment: Inhibition of MKK7 (unknown origin) at 1 uM by Eurofins DiscoverX KINOMEscan analysis
T2 sequence (whole entry): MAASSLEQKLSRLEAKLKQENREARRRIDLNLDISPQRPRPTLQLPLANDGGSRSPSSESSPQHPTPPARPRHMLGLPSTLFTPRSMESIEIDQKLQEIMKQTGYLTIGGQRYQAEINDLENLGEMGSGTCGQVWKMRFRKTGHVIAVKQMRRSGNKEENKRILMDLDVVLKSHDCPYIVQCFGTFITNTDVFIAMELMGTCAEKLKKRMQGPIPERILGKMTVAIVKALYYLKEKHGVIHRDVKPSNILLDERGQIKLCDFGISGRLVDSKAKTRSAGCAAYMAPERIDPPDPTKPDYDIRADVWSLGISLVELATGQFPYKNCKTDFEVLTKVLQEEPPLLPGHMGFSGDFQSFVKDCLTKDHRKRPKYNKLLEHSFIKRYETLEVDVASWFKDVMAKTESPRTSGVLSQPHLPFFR

[7] = target: Tyrosine-protein kinase BTK (Homo sapiens) (UniProt Q06187); experiment: Inhibition of BTK (unknown origin) at 1 uM by Eurofins DiscoverX KINOMEscan analysis
Chain of Tyrosine-protein kinase BTK (Homo sapiens) (Q06187 whole entry): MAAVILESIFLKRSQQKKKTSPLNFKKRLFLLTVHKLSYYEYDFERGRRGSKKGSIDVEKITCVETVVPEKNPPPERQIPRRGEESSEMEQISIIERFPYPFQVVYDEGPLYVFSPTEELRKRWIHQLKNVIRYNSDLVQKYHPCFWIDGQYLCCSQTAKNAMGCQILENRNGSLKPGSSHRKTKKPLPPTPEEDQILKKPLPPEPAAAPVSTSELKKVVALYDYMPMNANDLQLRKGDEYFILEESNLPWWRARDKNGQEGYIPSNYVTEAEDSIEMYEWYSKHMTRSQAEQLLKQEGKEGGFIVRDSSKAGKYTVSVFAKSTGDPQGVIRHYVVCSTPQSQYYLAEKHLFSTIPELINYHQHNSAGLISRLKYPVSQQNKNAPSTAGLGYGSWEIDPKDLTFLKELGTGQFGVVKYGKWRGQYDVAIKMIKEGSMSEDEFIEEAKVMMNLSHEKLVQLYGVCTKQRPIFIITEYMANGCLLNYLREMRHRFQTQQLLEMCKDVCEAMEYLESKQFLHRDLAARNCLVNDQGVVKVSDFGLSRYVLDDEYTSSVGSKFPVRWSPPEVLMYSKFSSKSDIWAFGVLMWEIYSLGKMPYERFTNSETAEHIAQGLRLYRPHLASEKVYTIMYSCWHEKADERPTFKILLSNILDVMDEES

[8] = target: Myosin-IIIa (Homo sapiens) (UniProt Q8NEV4); experiment: Inhibition of MYO3A (unknown origin) at 1 uM by Eurofins DiscoverX KINOMEscan analysis relative to control
Chain of Myosin-IIIa (Homo sapiens) (Q8NEV4 whole entry, the tested form may be a part): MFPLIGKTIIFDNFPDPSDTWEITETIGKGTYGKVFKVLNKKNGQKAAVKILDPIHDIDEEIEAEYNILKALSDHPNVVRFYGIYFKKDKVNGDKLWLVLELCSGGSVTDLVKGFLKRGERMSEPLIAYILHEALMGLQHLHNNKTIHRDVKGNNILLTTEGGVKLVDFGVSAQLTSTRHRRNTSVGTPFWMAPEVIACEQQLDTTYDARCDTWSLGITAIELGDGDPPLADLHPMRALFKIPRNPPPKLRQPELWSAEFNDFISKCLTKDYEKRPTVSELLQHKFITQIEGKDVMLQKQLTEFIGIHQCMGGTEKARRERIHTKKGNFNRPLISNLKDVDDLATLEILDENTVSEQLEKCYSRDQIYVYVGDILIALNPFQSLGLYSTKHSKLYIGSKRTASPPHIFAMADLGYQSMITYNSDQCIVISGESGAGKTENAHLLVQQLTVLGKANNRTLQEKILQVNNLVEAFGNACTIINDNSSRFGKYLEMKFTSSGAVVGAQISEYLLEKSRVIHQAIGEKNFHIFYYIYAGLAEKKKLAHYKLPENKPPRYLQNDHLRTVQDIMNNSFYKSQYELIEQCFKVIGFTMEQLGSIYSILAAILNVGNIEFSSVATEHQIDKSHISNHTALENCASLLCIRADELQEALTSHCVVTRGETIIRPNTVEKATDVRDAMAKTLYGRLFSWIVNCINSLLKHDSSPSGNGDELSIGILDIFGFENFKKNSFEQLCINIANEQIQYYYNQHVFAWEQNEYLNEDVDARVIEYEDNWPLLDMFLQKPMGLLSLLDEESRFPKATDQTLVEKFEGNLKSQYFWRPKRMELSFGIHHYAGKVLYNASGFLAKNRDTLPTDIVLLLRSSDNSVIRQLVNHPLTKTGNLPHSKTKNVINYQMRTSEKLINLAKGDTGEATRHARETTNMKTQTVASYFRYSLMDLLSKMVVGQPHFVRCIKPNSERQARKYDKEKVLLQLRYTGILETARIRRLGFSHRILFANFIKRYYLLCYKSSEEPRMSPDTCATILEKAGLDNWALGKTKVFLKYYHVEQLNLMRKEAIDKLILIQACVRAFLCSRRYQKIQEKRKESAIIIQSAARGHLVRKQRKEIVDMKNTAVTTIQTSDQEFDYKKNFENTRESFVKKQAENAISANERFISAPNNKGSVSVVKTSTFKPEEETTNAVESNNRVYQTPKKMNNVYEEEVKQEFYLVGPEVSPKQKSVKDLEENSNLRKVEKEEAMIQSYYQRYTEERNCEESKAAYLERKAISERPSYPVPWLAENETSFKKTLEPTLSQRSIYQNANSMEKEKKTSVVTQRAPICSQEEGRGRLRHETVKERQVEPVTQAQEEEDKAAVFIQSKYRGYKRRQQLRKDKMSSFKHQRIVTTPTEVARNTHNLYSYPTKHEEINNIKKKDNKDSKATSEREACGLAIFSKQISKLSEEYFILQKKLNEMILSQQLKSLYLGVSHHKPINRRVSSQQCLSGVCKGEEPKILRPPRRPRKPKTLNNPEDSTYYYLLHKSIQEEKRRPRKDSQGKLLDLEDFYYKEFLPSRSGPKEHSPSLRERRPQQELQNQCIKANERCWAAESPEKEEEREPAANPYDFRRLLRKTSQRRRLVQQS

[9] = target: Epidermal growth factor receptor (Homo sapiens, UniProt P00533, L858R/T790M); experiment: Time-dependent irreversible inhibition of GST-tagged EGFR L858R/T790M mutant cytoplasmic domain (669 to 1210 residues) (unknown origin) assessed as apparent inactivation constant (Ki) incubated for 240 mins in presence of ATP by fluorescence based analysis; conditions: read-out: Ki(app)
Chain of Epidermal growth factor receptor (P00533 25-1210 T790M/L858R limits assumed): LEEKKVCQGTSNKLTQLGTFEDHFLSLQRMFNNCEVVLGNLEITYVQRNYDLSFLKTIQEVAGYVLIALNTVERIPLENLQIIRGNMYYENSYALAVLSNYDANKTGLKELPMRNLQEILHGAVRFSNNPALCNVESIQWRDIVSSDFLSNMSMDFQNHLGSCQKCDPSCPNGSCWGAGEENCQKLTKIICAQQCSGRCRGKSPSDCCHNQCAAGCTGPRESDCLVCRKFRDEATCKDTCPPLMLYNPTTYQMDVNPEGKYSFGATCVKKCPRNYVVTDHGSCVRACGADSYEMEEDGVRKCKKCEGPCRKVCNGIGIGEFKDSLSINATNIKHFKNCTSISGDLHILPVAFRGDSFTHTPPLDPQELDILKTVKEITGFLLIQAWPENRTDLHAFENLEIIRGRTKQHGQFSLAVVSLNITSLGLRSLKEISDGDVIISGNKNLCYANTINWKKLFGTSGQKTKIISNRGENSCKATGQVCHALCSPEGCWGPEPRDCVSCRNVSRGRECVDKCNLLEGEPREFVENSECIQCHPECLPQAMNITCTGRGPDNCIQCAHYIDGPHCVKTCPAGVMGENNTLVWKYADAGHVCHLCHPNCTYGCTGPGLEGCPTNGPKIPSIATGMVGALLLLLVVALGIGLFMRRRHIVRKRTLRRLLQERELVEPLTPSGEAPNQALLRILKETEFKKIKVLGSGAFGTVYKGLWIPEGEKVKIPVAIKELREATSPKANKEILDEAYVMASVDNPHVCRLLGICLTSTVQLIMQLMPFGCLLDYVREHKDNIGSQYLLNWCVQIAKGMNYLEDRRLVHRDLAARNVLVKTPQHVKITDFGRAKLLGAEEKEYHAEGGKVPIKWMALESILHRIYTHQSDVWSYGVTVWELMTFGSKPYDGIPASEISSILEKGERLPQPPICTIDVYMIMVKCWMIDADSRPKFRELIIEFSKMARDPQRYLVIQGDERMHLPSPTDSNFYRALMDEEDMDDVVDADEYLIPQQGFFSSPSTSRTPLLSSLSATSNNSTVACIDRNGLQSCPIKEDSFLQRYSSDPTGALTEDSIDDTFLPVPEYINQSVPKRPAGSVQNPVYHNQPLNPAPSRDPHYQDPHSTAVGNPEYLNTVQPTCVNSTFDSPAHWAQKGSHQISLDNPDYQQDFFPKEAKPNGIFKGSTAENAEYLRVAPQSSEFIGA

[10] = target: T3, Tyrosine-protein kinase JAK3 (Homo sapiens) (UniProt P52333); experiment: Inhibition of JAK3 (unknown origin) at 1 uM by Eurofins DiscoverX KINOMEscan analysis
T3 sequence (whole entry): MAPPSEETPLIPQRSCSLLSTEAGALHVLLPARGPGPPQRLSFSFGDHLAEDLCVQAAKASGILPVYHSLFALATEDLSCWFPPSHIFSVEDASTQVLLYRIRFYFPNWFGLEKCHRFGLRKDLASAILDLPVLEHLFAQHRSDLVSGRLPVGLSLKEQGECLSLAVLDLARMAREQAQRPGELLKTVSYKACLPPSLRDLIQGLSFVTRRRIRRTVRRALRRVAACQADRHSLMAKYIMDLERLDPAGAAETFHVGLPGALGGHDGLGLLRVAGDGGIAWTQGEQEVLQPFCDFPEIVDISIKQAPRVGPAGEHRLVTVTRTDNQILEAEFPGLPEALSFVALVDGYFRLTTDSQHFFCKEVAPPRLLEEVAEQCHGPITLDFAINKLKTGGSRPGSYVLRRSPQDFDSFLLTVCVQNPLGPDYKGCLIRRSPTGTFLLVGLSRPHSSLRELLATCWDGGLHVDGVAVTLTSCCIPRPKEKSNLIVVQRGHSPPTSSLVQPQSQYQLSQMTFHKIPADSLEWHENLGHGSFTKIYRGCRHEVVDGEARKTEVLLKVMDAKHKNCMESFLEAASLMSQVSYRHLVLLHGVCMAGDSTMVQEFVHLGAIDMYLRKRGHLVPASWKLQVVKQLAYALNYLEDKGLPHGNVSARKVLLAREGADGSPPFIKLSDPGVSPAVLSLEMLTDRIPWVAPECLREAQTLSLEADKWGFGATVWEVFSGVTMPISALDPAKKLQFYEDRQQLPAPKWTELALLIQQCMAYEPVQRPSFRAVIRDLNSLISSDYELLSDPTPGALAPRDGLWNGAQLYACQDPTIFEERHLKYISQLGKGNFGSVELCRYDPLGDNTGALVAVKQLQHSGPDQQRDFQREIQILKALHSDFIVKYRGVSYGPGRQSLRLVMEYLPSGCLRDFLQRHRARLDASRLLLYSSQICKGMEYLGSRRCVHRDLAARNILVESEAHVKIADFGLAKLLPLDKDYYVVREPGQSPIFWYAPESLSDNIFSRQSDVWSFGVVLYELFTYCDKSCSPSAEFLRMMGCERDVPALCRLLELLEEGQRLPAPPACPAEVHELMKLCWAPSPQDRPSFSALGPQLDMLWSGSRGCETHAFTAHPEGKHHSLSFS

C=CC(=O)Nc1ccc(OC)c(Nc2cc(-c3[nH]c(SC)nc3-c3cccc(NC(=O)c4cccc(O)c4CN4Cc5ccccc5C4=O)c3)ccn2)c1
EC50 (BaF3 [1]): 750 nM | EC50 (BaF3 [2]): 430 nM | EC50 (cells): 330 nM | inhibition (Homo sapiens): < 10% | Drug metabolism [3]: metabolite_detected | inhibition [4]: inactive | EC50 (BaF3 [5]): 950 nM | inhibition [6]: inactive | inhibition [7]: inactive | inhibition [8]: < 10% | Ki [9]: 543 nM | inhibition [10]: inactive
